The text below walks through data of patent US20260116868A1 (Arcus Biosciences, Inc., priority 2023, published 2026).

The target in test [1] is T1, Cbl-b (Homo sapiens, UniProt Q13191).
T1 construct: biotin (biotinylated protein)
Briefly: Cbl-b probe displacement HTRF binding assay. The conditions noted are these: 0.4 nM Cbl-b, 150 nM BODIPY probe. The method in brief: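 Compound competes with BODIPY probe (150 nM) for biotinylated Cbl-b (0.4 nM) in HEPES/NaCl/Triton/TCEP/BSA buffer; 60 min preincubation, 15 min with probe, room temperature. Tb-streptavidin HTRF read; % displacement vs DMSO and no-protein controls, IC50 from four-parameter fit.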
For orientation: In TR-FRET formats the signal depends on donor and acceptor labels being close together.

Test [2] relates to Jurkat cells. Briefly: IL-2 secretion assay in Jurkat cells activated with CD3/CD28 T Cell Activator. The conditions noted are these: Homo sapiens, 24 h, read-out: IL-2 Secretion (EC50). It is filed as cell-based. The procedure, abridged: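 Jurkat cells in Opti-MEM were preincubated 1 h at 37° C with compound (final 10 μM to 300 pM, 16-point 1:2 dilution), then activated with human CD3/CD28 T Cell Activator for 24 h at 37° C. Supernatant IL-2 measured by AlphaLISA; EC50 from 4-parameter logistic fit.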

[3] abbreviates: Jurkat cells, CD3/CD28 T Cell Activator, IL-2 AlphaLISA.

Like-named read-outs stand apart in the source and are kept apart here.

T1 sequence (Q13191 whole entry, species assumed): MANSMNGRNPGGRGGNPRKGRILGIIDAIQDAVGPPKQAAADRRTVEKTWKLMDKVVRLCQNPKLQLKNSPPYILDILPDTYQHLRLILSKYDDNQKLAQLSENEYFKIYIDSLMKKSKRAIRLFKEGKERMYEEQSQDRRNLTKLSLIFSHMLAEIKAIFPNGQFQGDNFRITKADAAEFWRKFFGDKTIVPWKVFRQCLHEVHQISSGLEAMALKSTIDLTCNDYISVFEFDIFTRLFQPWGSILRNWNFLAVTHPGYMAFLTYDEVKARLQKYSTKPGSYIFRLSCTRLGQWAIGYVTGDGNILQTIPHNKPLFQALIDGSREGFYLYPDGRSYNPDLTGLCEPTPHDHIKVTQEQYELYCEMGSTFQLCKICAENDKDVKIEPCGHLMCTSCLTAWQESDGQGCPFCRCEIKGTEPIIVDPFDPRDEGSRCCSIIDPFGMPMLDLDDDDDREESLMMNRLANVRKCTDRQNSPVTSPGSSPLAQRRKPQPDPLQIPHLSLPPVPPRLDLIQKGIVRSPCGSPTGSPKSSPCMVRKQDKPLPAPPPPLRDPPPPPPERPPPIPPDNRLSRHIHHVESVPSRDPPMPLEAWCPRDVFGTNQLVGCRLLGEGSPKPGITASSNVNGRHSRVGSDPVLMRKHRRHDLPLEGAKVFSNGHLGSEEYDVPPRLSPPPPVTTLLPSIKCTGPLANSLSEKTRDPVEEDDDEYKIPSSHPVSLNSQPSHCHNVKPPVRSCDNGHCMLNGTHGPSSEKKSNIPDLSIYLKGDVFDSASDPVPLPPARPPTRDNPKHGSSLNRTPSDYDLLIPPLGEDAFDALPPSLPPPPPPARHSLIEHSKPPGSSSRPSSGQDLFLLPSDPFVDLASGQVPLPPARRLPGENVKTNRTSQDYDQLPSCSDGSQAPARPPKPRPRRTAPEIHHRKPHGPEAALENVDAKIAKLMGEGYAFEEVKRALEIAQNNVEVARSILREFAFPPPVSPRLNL

As to `Cn1cnnc1-c1cc(F)ccc1-c1cc(NC(=O)c2cc(C3CCNC3)cn(C3CC3)c2=O)nc(C2CC2)c1` (stereo not shown) [Example 30, N-{6-Cyclopropyl-4-[4-fluoro-2-(4-methyl-4H-1,2,4-triazol-3-yl)phenyl]-2-pyridyl}-1-cyclopropyl-2-oxo-5-(3-pyrrolidinyl)-1,2-dihydronicotinamide], the IC50 (as a rule, the concentration that inhibits the measured activity by half) in test [1] fell in the range of 0.1 to 1 µM. Further, in test [2] (setting [3]), the EC50 (commonly the concentration needed to bring the measured effect to its halfway point) was > 5 µM.

Turning to `CC(C)CNCc1cc(C(=O)Nc2cc(-c3c(F)cc(Cl)cc3C(=O)N3CC(F)(F)C3)cc(C3CC3)n2)c(=O)n(C2CC2)c1` [Example 144, N-(4-{4-chloro-2-[(3,3-difluoro-1-azetidinyl)carbonyl]-6-fluorophenyl}-6-cyclopropyl-2-pyridyl)-1-cyclopropyl-5-[(isobutylamino)methyl]-2-oxo-1,2-dihydronicotinamide], in test [1], the IC50 is < 0.1 µM. For the same compound, the concentration for a half-maximal effect (EC50) in test [2] (Jurkat) was < 0.1 µM.

Regarding `COCCNCc1cc(C(=O)Nc2cc(-c3ccc(F)cc3-c3nncn3C)cc(C3CC3)n2)c(=O)n(C2CC2)c1` [Example 4, 1-cyclopropyl-N-[6-cyclopropyl-4-[4-fluoro-2-(4-methyl-1,2,4-triazol-3-yl)phenyl]pyridin-2-yl]-5-[(2-methoxyethylamino)methyl]-2-oxopyridine-3-carboxamide], the IC50 in test [1] is < 0.1 µM. In addition, in test [2] (setting [3]), the 50% effective concentration (EC50) is < 0.1 µM.

Consider `Cn1cnnc1-c1cc(F)ccc1-c1cc(NC(=O)c2cc(CNC3(C)CCC3)cn(CC3CC3)c2=O)nc(C2CC2)c1` [Example 55], for which the IC50 in test [1] was < 0.1 µM. Further, the EC50 in test [2] (setting [3]) is < 0.1 µM.

Turning to `CC1(NCc2cc(C(=O)Nc3cc(-c4ccc(C#N)cc4-c4nncn4C(F)F)cc(C4CC4)n3)c(=O)n(C3CC3)c2)CCC1` [Example 10, N-(4-{4-cyano-2-[4-(difluoromethyl)-4H-1,2,4-triazol-3-yl]phenyl}-6-cyclopropyl-2-pyridyl)-1-cyclopropyl-5-[(1-methylcyclobutylamino)methyl]-2-oxo-1,2-dihydronicotinamide], the IC50 in test [1] is < 0.1 µM. Besides, the EC50 in test [2] (setting [3]) was < 0.1 µM.
